Results as given in patent US20250382631A1, “PROTAC-CID SYSTEMS FOR USE IN MULTIPLEX GENE REGULATION” (William Marsh Rice University, priority 2022, published 2025).
pEC50: −log10 of the molar value. Like-named read-outs stand apart in the source and are kept apart here. One block for each compound: values may come before it.

Key:
[1] = tested on: isABE system (FRB / FKBP3 fused split ABE8e), EYFP reporter in HEK293T cells; experiment: isABE split adenine base editor, EYFP stop-codon reporter dose response; assay type: cell-based; settings: Homo sapiens, HEK-293T; different doses of Rapamycin, FIG. 5J
Description: For rapid exploration of inducible ABE variants, the inventors first sought to develop a rapid fluorescence-based reporter system to quantify the ABE efficiency as reported before. The inventors selected target region in eyfp gene with NGG PAM where a CAG codon within the editing window was mutated to TAG stop codon. ABEs convert A to G or T to C, thus allowing the conversion of stop codon to CAG following gRNA binding to untemplated strand. Additionally, there is no other bystander A in the editing window that would cause complex editing to affect the fluorescence expression. The inventors observed a high restoration of the EYFP fluorescence when transfecting HEK293T cells with plasmids encoding the ABE8e fused SpCas9 and guide RNA (FIGS. 5A and 5B). Next, the target range of base editors was restricted by the PAM where the prototypical SpCas9 recognizing target sites with NGG PAM (where N is A, C, G or T). A variant named SpG was identified with an expanded set of NGN PAM. […]
To develop a split adenosine base editor system, the inventors identified two potential split regions based on the crystal structure of ABE8e base editor in complex with guide RNA and target DNA. […] In addition, moderate levels of eYFP signal were detected in both sites. […]

[2] = PROTAC-CID inducible EYFP gene activation, flow cytometry; assay type: cell-based, human; settings: Homo sapiens, HEK-293T, FIG. 13A
Description: (§1) Fluorescence assay using flow cytometry analysis. Cells were treated with 0.05% Trpsin EDTA (Thermo Fisher Scientific no. 25300054) or TrypLE (Thermo Fisher Scientific no. 12605028) after transfection and centrifuged at 3000 g for 5 min. Supernatant was removed and the cell pellet was resuspended with 200 μL phosphate buffered saline (PBS) without calcium and magnesium (Thermo Fisher Scientific no. 10010023). Cells were transferred into 12×75 mm flow tubes (Global Scientific no. 110410). Cells were analyzed by MA900 flow cytometry (SONY). 405 nm laser (FL6 filter) was used for testing the BFP channel. 488 nm (FL1 filter) was used for testing the EYFP and GFP channel. Automated alignment using Automatic Setup Beads kit (SONY no. LE-B3001) is performed before running samples. In FIGS. 3A, 3B, and 17, experiments were performed under 2% FSC, 17% BSC, 24% FL1. In FIG. 18, experiments were performed under 2% FSC, 17% BSC, 27% FL1. All the other experiments were performed under 2% FSC, 17% BSC, 24% FL1 and 27% FL6. Flow cytometry data was processed and analyzed by FlowJo 10. Events were first gated with forward scatter-Area (FSC-A) and side scatter-Area (SSC-A) to select viable cells and remove the debris and dead cells. Cells were further gated with FSC-A and FSC-Height (FSC-H) for selecting single cells. The mean intensity of the reporter fluorescent protein (BFP and EYFP) in viable and single cell populations were calculated by FlowJo 10 as the mean of FL6-A and FL1-A. When calculating the fold change of relative fluorescence units (RFU), the relative fluorescence units of EYFP was calculated by dividing the mean of fluorescence intensity of EYFP with the mean of BFP fluorescence intensity for normalization as the following formula: […]
(§2) Next, the mean of the normalized relative fluorescence units of induced group were divided by the value of control group for calculating the fold change as the following formula: […]
(§3) Transfection and microscopy. HEK293T cells (American Type Culture Collection, no. CRL-3216) were cultured with high-glucose Dulbecco's modified Eagle's medium (DMEM) (Thermo Fisher Scientific no. 10569044) with 10% fetal bovine serum (FBS) (Thermo Fisher Scientific no. 10437028) and 1×penicillin-streptomycin (Thermo Fisher Scientific no. 15140122) at 37° C. with 5% CO2. Except for the data in FIGS. 3C, 3E, and 3H, cells were plated into 96 well plate (Corning no. 3598) and transfected by Polyethyleneimine Max (PEI Max) (Polysciences no. 24765-1). 1.5 μL PEI Max (1 mg/mL, pH=7.1) and 100 μl DMEM were mixed with plasmids to be slowly dropped into the cell medium after 30 mins of incubation. Medium was changed 12 hours post-transfection. The inductive small molecules, including Rapamycin (STEM CELL technologies no. 73362), dTAG-13 (TOCRIS no. 6605/5), dTAG^V-1 (TOCRIS no. 6744-5), dBRD9 (TOCRIS no. 6606/5), dTRIM24 (TOCRIS no. 6607/5), MZ1 (TOCRIS no. 6154/5), AT1 (TOCRIS no. 6356/5), TL13-12 (TOCRIS no. 6744/5), TL13-112 (TOCRIS no. 6745/5), dTAG-7 (TOCRIS no. 69125), ZXH3-26 (TOCRIS no. 6713/5) and ABA (GoldBio no. A-050-100), dissolved in Dimethyl sulfoxide (DMSO) (Sigma, no. D8418) were added. For the microscopy observation, the images were taken by Microscopy EVOS (Life Technologies) and processed by ImageJ (Schneider et al., 2012). If not otherwise noted, 60 ng of each plasmid were used for each sample.
(§4) Step-by-step fluorescence protein activation assay protocol. Reagents: • 1. PEI Max (Polysciences no. 24765-1) • 2. DMEM, high glucose, GlutaMAX™ Supplement, pyruvate (Thermo Fisher Scientific no. 10569044) • 3. Penicillin-Streptomycin (10,000 U/mL) (Thermo Fisher Scientific no. 15140122) • 4. Fetal Bovine Serum 500ML (FBS) (Thermo Fisher Scientific no. 10437028) • 5. TrypLE™ Express Enzyme (1×), phenol red (Thermo Fisher Scientific no. 12605068) • 6. PBS pH=7.4 (Thermo Fisher Scientific no. 10010023) • 7. Sony sorting chip […] for MA900 (SONY no. LE-C3210) • 8. Automatic Setup Beads kit (SONY no. LE-B3001) • 9. […]

[3] = tested on: pUAS-1-driven EYFP expression in HEK293T cells transfected with GAL4- and VPR-fused PROTAC target protein / E3 ubiquitin ligase; experiment: as above; assay type: cell-based, human; settings: for Bottom (best-fit value) / Span (best-fit value) / Top (best-fit value): Table 4 nonlinear regression of EYFP activation
Description: as §1, §2, §3, §4

[4] = tested on: EYFP and BFP expression in HEK293T cells; experiment: Dual PROTAC-based inducible gene cassettes (EYFP and BFP), microscopy; assay type: cell-based, human; settings: GAL4-FKBP12^F36V + VHL-VPR driving EYFP; TetR-BRD9BD + CRBN-VPR driving BFP; 1 μM, FIG. 2B
Description: as §3
The inventors next tested the feasibility of dual PROTAC-based inducible gene cassettes (FIG. 15). In the first cassette, GAL4 was fused with FKBP12^F36V, and VHL was ligated with VPR to drive EYFP expression in response to dTAG^V-1. In the second cassette, TetR was fused with BRD9BD, and CRBN was connected with VPR to drive blue fluorescence protein (BFP) expression in the presence of dBRD9. […] As biological computation relies on the protein or DNA to execute Boolean logic gate operation in living organisms for cell discrimination and disease diagnosis (3, 11, 42), the inventors next explored the possibility of PROTAC-CID enabled logic gate biological computation. By placing EYFP under control of the TRE (Tetracycline response element) and pUAS-1 promoter, the inventors observed strong EYFP expression by using one or two PROTACs, achieving clear logic OR gate responses (FIGS. 2C and 16B). To develop a more sophisticated logic AND gate, the inventors took advantage of two orthogonal site-specific DNA recombinases (Cre and Dre) for biological computation (43). […] In this gene circuit, only in the presence of both dTAG-13 and dBRD9 inducers, Dre and Cre can be expressed to remove their respective “STOP” signals, resulting in the eventual GFP expression as a clear logic AND readout (FIGS. 2D and 16C).

[5] = tested on: Cre-mediated GFP expression in HEK293T cells; experiment: Inducible Cre site-specific DNA recombination, LoxP-STOP-LoxP-GFP reporter; assay type: cell-based, human; settings: 100 nM dTAG-13 or 1 μM dBRD9, 2 days, FIGS. 3A and 17
Description: as §1
Transfection and microscopy. […]

wild-type FKBP12 = wild-type FKBP12 (Homo sapiens, UniProt P62942); settings: refs (32, 36); cited from earlier work
GAL4-FKBP12 = GAL4-FKBP12 (UniProt P04386); experiment: cell-based or functional assay
PYL-VPR = PYL-VPR (UniProt Q8VZS8); experiment: cell-based or functional assay
TRIM24^BD-VPR (human) = experiment: cell-based or functional assay
BRD4^BD2-VPR (human) = experiment: cell-based or functional assay
[6] = Table 4 nonlinear regression, FIG. 13A

wild-type FKBP12, sequence (P62942 whole entry, species assumed, the tested form may be a part): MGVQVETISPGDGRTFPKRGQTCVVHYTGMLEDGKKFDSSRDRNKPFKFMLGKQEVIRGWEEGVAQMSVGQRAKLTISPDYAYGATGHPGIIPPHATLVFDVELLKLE
PYL-VPR, sequence (Q8VZS8 33-209): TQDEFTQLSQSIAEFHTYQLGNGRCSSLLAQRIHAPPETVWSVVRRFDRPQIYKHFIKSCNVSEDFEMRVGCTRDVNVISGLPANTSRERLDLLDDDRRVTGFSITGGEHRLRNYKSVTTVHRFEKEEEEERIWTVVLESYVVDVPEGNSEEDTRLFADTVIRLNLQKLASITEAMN

EC50 ([2]; Table 4 nonlinear regression, Prism 9 [Agonist] vs. response variable slope (four parameters), no unit in table (the source gives nM), read-out: EC50 (best-fit value)): 6.32 nM
pEC50 ([2]; dose-response, read-out: EC50 for gene activation): 8.22
Compound: CO[C@H]1C[C@@H]2CC[C@@H](C)[C@@](O)(O2)C(=O)C(=O)N2CCCC[C@H]2C(=O)O[C@H]([C@H](C)C[C@@H]2CC[C@@H](O)[C@H](OC)C2)CC(=O)[C@H](C)/C=C(\C)[C@@H](O)[C@@H](OC)C(=O)[C@H](C)C[C@H](C)/C=C/C=C/C=C/1C [Rapamycin]
pEC50 [1]: 8.74
Bottom (best-fit value) ([3]; FIG. 13A): 6.692
Span (best-fit value) ([3]; FIG. 13A): 483.9
Top (best-fit value) ([3]; FIG. 13A): 490.6
Hillslope (best-fit value) [3, 6]: 1.871
logEC50 (best-fit value) [3, 6]: 0.8008
rapamycin-based gene activation (EYFP) ([3]; using FRB and FKBP12, FIG. 1B): 355 fold

Compound: COc1cc(-c2cn(C)c(=O)c3cnccc23)cc(OC)c1CN(C)CC(=O)NCCOCCOCCNc1cccc2c1C(=O)N(C1CCC(=O)NC1=O)C2=O (stereo not shown) [dBRD9]
EYFP / BFP expression from dual inducible cassettes [4]: expression only in the presence of its corresponding inducer
GFP signal, two-layer genetic circuit driving Cre [5]: strong GFP signal

Compound: CC[C@H](C(=O)N1CCCC[C@H]1C(=O)O[C@H](CCc1ccc(OC)c(OC)c1)c1ccccc1OCC(=O)NCCCCCCC(=O)N[C@H](C(=O)N1C[C@H](O)C[C@H]1C(=O)N[C@@H](C)c1ccc(-c2scnc2C)cc1)C(C)(C)C)c1cc(OC)c(OC)c(OC)c1 [dTAG^V-1]
degradation of wild-type FKBP12 (wild-type FKBP12): do not degrade wild-type FKBP12
EYFP / BFP expression from dual inducible cassettes [4]: expression only in the presence of its corresponding inducer
Bottom (best-fit value) ([3]; FIG. 13A): 0.9420
Span (best-fit value) ([3]; FIG. 13A): 55.73
Top (best-fit value) ([3]; FIG. 13A): 56.67
Hillslope (best-fit value) [3, 6]: 1.937
logEC50 (best-fit value) [3, 6]: 2.358
EC50 ([3]; Table 4 nonlinear regression, Prism 9 [Agonist] vs. response variable slope (four parameters), FIG. 13A, no unit in table (the source gives nM), read-out: EC50 (best-fit value)): 228 nM
pEC50 ([3]; dose-response, FIG. 13A, read-out: EC50 for gene activation): 6.64

Compound: FRB-VPR (from UniProt P42345 2021-2113)
EC50 of the inducer Rapamycin for EYFP gene activation (dose-response, FIG. 13A) (GAL4-FKBP12): 6.32 nM
fold EYFP gene activation with rapamycin (GAL4-FKBP12): 355 fold

Compound: GAL4-ABI (from UniProt P04386 1-147; P49597 126-423)
EC50 of the inducer ABA for EYFP gene activation (dose-response, FIG. 13A) (PYL-VPR): 763 nM

Compound: GAL4-VHL fusion protein
EC50 of the inducer dTRIM24 for EYFP gene activation (dose-response, FIG. 13A) (TRIM24^BD-VPR (human)): 6350 nM
EC50 of the inducer MZ1 for EYFP gene activation (dose-response, FIG. 13A) (BRD4^BD2-VPR (human)): 32.4 nM
